Data on three compounds can be found in patent US20110027178A1, “IMAGING THE CENTRAL NERVOUS SYSTEM” (priority 2008, published 2011).

For the test, the target named is T1, P2X7 receptor (Homo sapiens, UniProt Q99572).
T1 construct: expressed in transfected cells; host or cells: HEK.293 cells, transient transfection
T1 sequence (Q99572 1-595): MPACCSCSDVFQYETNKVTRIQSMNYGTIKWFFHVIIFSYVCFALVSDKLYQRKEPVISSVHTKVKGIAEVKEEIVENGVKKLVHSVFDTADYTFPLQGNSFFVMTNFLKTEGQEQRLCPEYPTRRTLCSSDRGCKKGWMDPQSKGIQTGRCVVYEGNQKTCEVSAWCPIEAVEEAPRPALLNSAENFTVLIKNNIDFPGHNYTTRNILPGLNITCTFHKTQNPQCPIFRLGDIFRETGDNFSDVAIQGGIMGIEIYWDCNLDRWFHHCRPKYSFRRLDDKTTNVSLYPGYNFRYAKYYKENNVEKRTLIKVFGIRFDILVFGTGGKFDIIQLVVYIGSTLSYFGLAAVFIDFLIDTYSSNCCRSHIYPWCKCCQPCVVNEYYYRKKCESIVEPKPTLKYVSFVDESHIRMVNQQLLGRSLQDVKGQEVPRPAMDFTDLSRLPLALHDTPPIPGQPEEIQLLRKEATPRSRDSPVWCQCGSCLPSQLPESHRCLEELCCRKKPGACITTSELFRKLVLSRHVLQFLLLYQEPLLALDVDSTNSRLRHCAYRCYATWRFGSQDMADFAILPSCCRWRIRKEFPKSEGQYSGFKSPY
The experiment in a line: Pore-forming assay (Yo Pro-1 dye uptake), P2X7 receptor functional assay. It counts as cell-based. The following applies: P2X7 transfected HEK.293 cells, Bz-ATP 30 μM, Yo Pro-1 1 μM, triplicate. From the text:
Non-radioactive versions of the Imaging Agents illustrated in Table I were screened in a P2X7 receptor functional assay. This assay is described in Example 9 and is based upon the ability of the P2X7 receptor to form a non-selective pore in P2X7 transfected HEK.293 cells upon activation with an agonist, thereby allowing dye to permeate the cells. The non selective P2X channel antagonist used as a reference inhibitor for the evaluation of the non-radioactive compound of the invention was pyridoxal-phosphate-6-azophenyl-2′,4′-disulfonate (PPADS), and the results of the assay are provided in Table I above.
The assay method used was based on the ability of the DNA binding dye, Yo Pro-1 (quinolinium, 4[3-methyl-2(3H)-benzoxazolylidene) methyl]-1-[3-(trimethyl-ammonio) propyl]-[…]) to enter through the dilated or “large pore form” of the P2X7 receptor and to bind to intracellular DNA/RNA whereupon it increases fluorescence intensity. Yo Pro-1 was therefore used to quantify inhibition of P2X7 function. This assay was based on the methods published by Michel et al., (B.J. Pharmacol 1998; 125: 1194-1201).
Initially, HEK.293 cells were transiently transfected using LipofectamineTMLTX (Invitrogen) for 72 hrs with P2X7 cDNA. 48 hours prior to use the cells were seeded into poly-D-lysine coated 96-well black-walled, clear bottomed plates, at a density of 30,000 cells/well. Stock solutions of each test compound were prepared at a concentration of 40 mM in 100% DMSO
Following the 48 hour incubation the culture medium was removed from the transfected cells, the cells were washed once and placed in pre-warmed sucrose assay buffer (Sucrose: 280 mM, KCl: 5 mM, CaCl2: 0.5 mM, glucose: 10 mM, HEPES: 10 mM, N-methyl-D-glucamine: 10 mM; pH7.4). The test compounds were added to the plate at a concentration of 10 μM and 100 nM in triplicate and incubated at 37° C. for 30 minutes. The final DMSO concentration in the assay was 1%. After this time Yo Pro-1 dye and Bz-ATP solution was added at concentrations of 1 μM and 30 μM respectively for 60 minutes at 37° C. The fluorescence was then read at 485 nm excitation and 530 nm emission.
The non-selective P2X channel antagonist PPADS was used as a reference inhibitor in the assay. A dose-response to PPADS was performed on the assay plate using a starting concentration of 200 μM followed by a 1 in 6 serial dilution covering 200 μM to 0.4 nM. For each compound data set, a percentage inhibition value was calculated based on the three assay points generated.

Molecules are shown by their SMILES.

On to `O=C1CSC(=O)N1C(CCc1ccncc1)COc1ccc(-c2cc([N+](=O)[O-])ccc2F)cc1` (stereo not drawn) [Non-radioactive Imaging Agent 2, 3-[1-(2′-Fluoro-5′-nitro-biphenyl-4-yloxymethyl)-3-pyridin-4-yl-propyl]-thiazolidine-2,4-dione], for which the “% Inhibition” value came to 22.0% (test compound 100 nM) and 72.0% (test compound 10 μM).
For `[18F]c1ncccc1Cn1nnnc1-c1cccc(Cl)c1Cl` [Non-radioactive Imaging Agent 5] the same measures were 10.0% and 69.6%.
For `O=C(CC12CC3CC(CC(C3)C1)C2)Nc1cccc2nc(NCCNCCOCC[18F])ccc12` [Non-radioactive Imaging Agent 3] the same measures were 0.00% and 62.0%.
